From ChEMBL document CHEMBL2169791, “Strategies for the design of HIV-1 non-nucleoside reverse transcriptase inhibitors: lessons from the development of seven representative paradigms” (J Med Chem, 2012)
In brackets after ≈: the same amount, converted by molar mass.

Columns and labels:
[1] = system: Human immunodeficiency virus 1; assay: Antiviral activity against HIV1 infected in human assessed as viral copies at 25 to 150 mg; assay type: functional
[2] = system: Human immunodeficiency virus 1; assay: Antiviral activity against HIV1 infected in human assessed as log reduction in viral load at 25 to 150 mg administered QD for 7 days measured on day 8 relative to placebo-control; assay type: functional
[3] = Half life in HIV-infected patient plasma; assay type: ADME, organism-based; details: human
[4] = Half life in plasma; assay type: ADME, cell-free
[5] = system: Human immunodeficiency virus 1; assay: Antiviral activity against HIV1 harboring reverse transcriptase K103N/Y181C mutant; assay type: functional, organism-based
[6] = system: Human immunodeficiency virus 1; assay: Antiviral activity against HIV1 harboring reverse transcriptase L100I/K103N mutant; assay type: functional, organism-based
[7] = system: Human immunodeficiency virus 1; assay: Antiviral activity against wild type HIV1; assay type: functional, organism-based
[8] = system: Human immunodeficiency virus 1; assay: Antiviral activity against HIV1 infected in MT4 cells; assay type: functional, organism-based; details: Human immunodeficiency virus 1, MT4
[9] = Selectivity index, ratio of cytotoxic concentration for human MT4 cells to IC50 for HIV1 3B; assay type: toxicity, cell-based; details: read-out: Selectivity Index
[10] = system: Human immunodeficiency virus 1; assay: Antiviral activity against HIV1 3B infected in MT4 cells; assay type: functional, organism-based; details: Human immunodeficiency virus 1, 3B
[11] = system: Human immunodeficiency virus 1; assay: Antiviral activity against HIV1 harboring reverse transcriptase Y188L mutant; assay type: functional, organism-based
[12] = system: Human immunodeficiency virus 1; assay: Antiviral activity against HIV1 harboring reverse transcriptase Y181C mutant; assay type: functional, organism-based
[13] = system: Human immunodeficiency virus 1; assay: Antiviral activity against HIV1 harboring reverse transcriptase K103N mutant; assay type: functional, organism-based
[14] = system: Human immunodeficiency virus 1; assay: Antiviral activity against HIV1 harboring reverse transcriptase L100I mutant; assay type: functional, organism-based
[15] = system: Human immunodeficiency virus 1; assay: Antiviral activity against HIV1 3B infected in MT4 cells assessed as inhibition of virus-induced cytopathic effect after 5 days by MTT assay; assay type: functional, organism-based; details: Human immunodeficiency virus 1, 3B, MT4, 120 h
[16] = Half life in HIV1-infected patient; assay type: ADME, organism-based; details: human, in vivo
[17] = system: Human immunodeficiency virus 1; assay: Antiviral activity against HIV1 infected in human assessed as log reduction in viral load at 750 mg administered QD for 7 days measured on day 8 relative to placebo-control; assay type: functional
[18] = system: Human immunodeficiency virus 1; assay: Antiviral activity against HIV1 infected in human assessed as log reduction in viral load at 500 mg administered QD for 7 days measured on day 8 relative to placebo-control; assay type: functional
[19] = system: Human immunodeficiency virus 1; assay: Ratio of nevirapine EC50 to compound EC50 for HIV1; assay type: functional
[20] = system: Human immunodeficiency virus 1; assay: Antiviral activity against HIV1 infected in human assessed as log reduction in viral load at 800 mg administered QD for 7 days measured on day 8 relative to placebo-control; assay type: functional

Structure (SMILES): Cc1cc(/C=C/C#N)cc(C)c1Nc1ccnc(Nc2ccc(C#N)cc2)n1 [RILPIVIRINE]
- Activity [1]: <50 mL⁻¹
- FC [2]: 1.199
- half-life [3]: 48 h

Structure (SMILES): Cc1cc(C#N)cc(C)c1Oc1nc(Nc2ccc(C#N)cc2)nc(N)c1Br [ETRAVIRINE]
- half-life [4]: 30 h
- IC50 [5]: 4.3 nM
- IC50 [6]: 19 nM
- IC50 [7]: < 10 nM

Structure (SMILES): Cc1cc(S(N)(=O)=O)ccc1NC(=O)COc1ccc(Cl)cc1C(=O)c1cc(F)cc(C(F)(F)F)c1
- IC50 [8]: 0.5 nM

Structure (SMILES): CC(C)=CCN1Cc2cccc3[nH]c(=S)n(c23)C[C@@H]1C
- selectivity ratio [9]: 31100
- IC50 [10]: 28 nM

Structure (SMILES): Cc1cc(C#N)cc(C)c1Oc1ccnc(Nc2ccc(C#N)cc2)n1
- IC50 [5]: 94 nM
- IC50 [6]: 798 nM
- IC50 [11]: 19 nM
- IC50 [12]: 37 nM
- IC50 [13]: 2.7 nM
- IC50 [14]: 73 nM
- IC50 [7]: 1.1 nM

Structure (SMILES): Cc1cn([C@H]2C[C@H](N=[N+]=[N-])[C@@H](CO)O2)c(=O)[nH]c1=O [ZIDOVUDINE]
- selectivity ratio [9]: 6200
- IC50 [10]: 1.5 nM

Structure (SMILES): CC(=O)c1ccc(C)cc1NC(C(N)=O)c1c(Cl)cccc1Cl (centres undefined) [LOVIRIDE]
- IC50 [15]: 13 nM

Structure (SMILES): CCN(CC)CCOc1ccc(NC(=O)COc2ccccc2C(=O)c2ccc(OC)cc2)cc1
- IC50 [8]: 10 µg/mL

Structure (SMILES): O=C(CSc1nnc(Br)n1-c1ccc(C2CC2)c2ccccc12)Nc1ccc(C(=O)[O-])cc1Cl.[K+]
- half-life [16]: 11 h

Structure (SMILES): Cc1cc(C#N)cc(C)c1Oc1nc(Nc2ccc(C#N)cc2)ncc1Br
- IC50 [5]: 25 nM
- IC50 [6]: 49 nM
- IC50 [11]: 5.9 nM
- IC50 [12]: 22 nM
- IC50 [13]: 1.4 nM
- IC50 [14]: 6.6 nM
- IC50 [7]: 1.4 nM

Structure (SMILES): CCc1nn(CCO)c(CC)c1Oc1cc(C#N)cc(C#N)c1 [LERSIVIRINE]
- FC [17]: 2
- FC [18]: 1.9

Structure (SMILES): CCN1c2ncc(CCOc3cc[n+]([O-])c4ccccc34)cc2C(=O)N(C)c2cccnc21 [BILR 355]
- Ratio EC50 [19]: >10
- EC50 [7]: 0.00026 µg/mL (≈ 0.589 nM)

Structure (SMILES): CO[P@](=O)(c1cc(C)cc(/C=C/C#N)c1)c1c(C(N)=O)[nH]c2ccc(Cl)cc12 [FOSDEVIRINE]
- FC [20]: 2.1
